The source of these data is BindingDB's records for doi:10.1021/jm031011g (Xenova, 2004).

The structures appear in SMILES notation.

The target in assay [1] is Multidrug resistance-associated protein 1 (Homo sapiens) (UniProt P33527). Put plainly: Effective concentration to inhibit MRP1 in potentiation assay.
Assay [2] shares this target. The description is as above. This is another data set of the same source.

Sequence of Multidrug resistance-associated protein 1 (Homo sapiens) (P33527 whole entry, looked up): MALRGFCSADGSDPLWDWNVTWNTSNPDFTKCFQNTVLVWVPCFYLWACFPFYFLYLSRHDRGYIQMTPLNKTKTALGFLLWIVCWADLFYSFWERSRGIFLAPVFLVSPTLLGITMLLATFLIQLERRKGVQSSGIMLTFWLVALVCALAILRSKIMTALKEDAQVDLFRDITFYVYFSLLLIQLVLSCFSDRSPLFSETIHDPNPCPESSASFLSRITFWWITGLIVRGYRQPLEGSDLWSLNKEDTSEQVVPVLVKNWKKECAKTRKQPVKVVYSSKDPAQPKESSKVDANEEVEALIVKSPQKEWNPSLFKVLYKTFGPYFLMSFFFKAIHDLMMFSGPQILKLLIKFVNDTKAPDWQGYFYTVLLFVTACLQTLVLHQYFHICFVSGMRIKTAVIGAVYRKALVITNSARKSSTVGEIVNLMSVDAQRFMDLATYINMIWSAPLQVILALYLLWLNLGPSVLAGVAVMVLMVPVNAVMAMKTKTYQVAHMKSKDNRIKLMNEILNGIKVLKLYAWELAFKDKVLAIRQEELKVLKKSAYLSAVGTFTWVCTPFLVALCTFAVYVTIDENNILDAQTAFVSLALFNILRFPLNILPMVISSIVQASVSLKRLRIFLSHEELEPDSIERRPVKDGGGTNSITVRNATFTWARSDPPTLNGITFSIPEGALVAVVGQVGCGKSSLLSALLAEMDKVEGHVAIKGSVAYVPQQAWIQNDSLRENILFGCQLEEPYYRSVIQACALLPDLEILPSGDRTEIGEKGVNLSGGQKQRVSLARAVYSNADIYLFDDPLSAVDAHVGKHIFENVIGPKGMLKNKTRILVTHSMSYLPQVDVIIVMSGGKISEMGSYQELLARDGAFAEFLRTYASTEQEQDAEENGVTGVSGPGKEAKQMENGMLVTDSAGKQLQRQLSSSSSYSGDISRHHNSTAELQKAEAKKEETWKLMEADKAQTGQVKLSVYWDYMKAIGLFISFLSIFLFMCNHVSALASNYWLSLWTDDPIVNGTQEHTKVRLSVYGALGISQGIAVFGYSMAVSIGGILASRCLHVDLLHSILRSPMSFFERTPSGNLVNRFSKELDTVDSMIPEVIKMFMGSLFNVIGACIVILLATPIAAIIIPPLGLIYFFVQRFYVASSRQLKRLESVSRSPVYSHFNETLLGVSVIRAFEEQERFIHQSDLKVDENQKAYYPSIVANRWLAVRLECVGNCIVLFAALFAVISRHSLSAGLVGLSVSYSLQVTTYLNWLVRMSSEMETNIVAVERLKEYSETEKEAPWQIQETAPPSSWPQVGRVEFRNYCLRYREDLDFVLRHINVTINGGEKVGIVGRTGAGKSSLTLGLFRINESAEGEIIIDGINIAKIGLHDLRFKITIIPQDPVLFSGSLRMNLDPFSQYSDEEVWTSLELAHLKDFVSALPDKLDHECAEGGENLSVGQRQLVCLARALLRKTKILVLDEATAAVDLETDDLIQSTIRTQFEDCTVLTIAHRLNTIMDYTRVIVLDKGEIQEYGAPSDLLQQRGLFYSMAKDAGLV

Turning to `O=C(NCc1ccccn1)c1c2n(c3c(N4CCN(CCc5ccc(F)c(F)c5)CC4)ncnc13)CCCC2` [4-{4-[2-(3,4-Difluoro-phenyl)-ethyl]-piperazin-1-yl}-6,7,8,9-tetrahydro-pyrimido[4,5-b]indolizine-10-carboxylic acid (pyridin-2-ylmethyl)-amide], the EC50 in assay [1] was 97 nM.

With `COc1cccc(CNC(=O)c2c3n(c4c(N5CCN(CCc6ccc(F)c(F)c6)CC5)ncnc24)CCCC3)c1OC` [4-{4-[2-(3,4-Difluoro-phenyl)-ethyl]-piperazin-1-yl}-6,7,8,9-tetrahydro-pyrimido[4,5-b]indolizine-10-carboxylic acid 2,3-dimethoxy-benzylamide], the concentration giving a half-maximal response (EC50) in assay [2] stood at 150 nM.

Turning to `NC(=O)c1c2n(c3c(N4CCN(CCc5ccc(F)c(F)c5)CC4)ncnc13)CCCC2` [4-{4-[2-(3,4-Difluoro-phenyl)-ethyl]-piperazin-1-yl}-6,7,8,9-tetrahydro-pyrimido[4,5-b]indolizine-10-carboxylic acid amide], in assay [1], the EC50 came to 117 nM.

What is called EC50 is the concentration at which the effect is half-maximal.
